Earlier results in patent US20260209864A1, “METHOD FOR DETERMINING AND IMPROVING THE POTENTIAL EFFICACY OF ANTICANCER TREATMENT” (ASSISTANCE PUBLIQUE - HOPITAUX DE PARIS, priority 2022, published 2026).

Experiments:
[1] = test system: hematological malignancies; conditions: early administration during allo-HSCT
[2] = after lung transplantation

- risk of hematological malignancies relapses [1]: unexpectedly increased risk
Structure (SMILES): CC[C@H]1OC(=O)[C@H](C)[C@@H](O[C@H]2C[C@@](C)(OC)[C@@H](O)[C@H](C)O2)[C@H](C)[C@@H](O[C@@H]2O[C@H](C)C[C@H](N(C)C)[C@H]2O)[C@](C)(O)C[C@@H](C)CN(C)[C@H](C)[C@@H](O)[C@]1(C)O [azithromycin]
- prevention of BOS [2]: prevents BOS
